Molecules are shown by their SMILES.

The record followed here is ChEMBL document CHEMBL4665909, “Carboxamides as Modulators of Sodium Channels” (ACS Med Chem Lett, 2020).

Sequence of Sodium channel protein type 10 subunit alpha (Q9Y5Y9 whole entry): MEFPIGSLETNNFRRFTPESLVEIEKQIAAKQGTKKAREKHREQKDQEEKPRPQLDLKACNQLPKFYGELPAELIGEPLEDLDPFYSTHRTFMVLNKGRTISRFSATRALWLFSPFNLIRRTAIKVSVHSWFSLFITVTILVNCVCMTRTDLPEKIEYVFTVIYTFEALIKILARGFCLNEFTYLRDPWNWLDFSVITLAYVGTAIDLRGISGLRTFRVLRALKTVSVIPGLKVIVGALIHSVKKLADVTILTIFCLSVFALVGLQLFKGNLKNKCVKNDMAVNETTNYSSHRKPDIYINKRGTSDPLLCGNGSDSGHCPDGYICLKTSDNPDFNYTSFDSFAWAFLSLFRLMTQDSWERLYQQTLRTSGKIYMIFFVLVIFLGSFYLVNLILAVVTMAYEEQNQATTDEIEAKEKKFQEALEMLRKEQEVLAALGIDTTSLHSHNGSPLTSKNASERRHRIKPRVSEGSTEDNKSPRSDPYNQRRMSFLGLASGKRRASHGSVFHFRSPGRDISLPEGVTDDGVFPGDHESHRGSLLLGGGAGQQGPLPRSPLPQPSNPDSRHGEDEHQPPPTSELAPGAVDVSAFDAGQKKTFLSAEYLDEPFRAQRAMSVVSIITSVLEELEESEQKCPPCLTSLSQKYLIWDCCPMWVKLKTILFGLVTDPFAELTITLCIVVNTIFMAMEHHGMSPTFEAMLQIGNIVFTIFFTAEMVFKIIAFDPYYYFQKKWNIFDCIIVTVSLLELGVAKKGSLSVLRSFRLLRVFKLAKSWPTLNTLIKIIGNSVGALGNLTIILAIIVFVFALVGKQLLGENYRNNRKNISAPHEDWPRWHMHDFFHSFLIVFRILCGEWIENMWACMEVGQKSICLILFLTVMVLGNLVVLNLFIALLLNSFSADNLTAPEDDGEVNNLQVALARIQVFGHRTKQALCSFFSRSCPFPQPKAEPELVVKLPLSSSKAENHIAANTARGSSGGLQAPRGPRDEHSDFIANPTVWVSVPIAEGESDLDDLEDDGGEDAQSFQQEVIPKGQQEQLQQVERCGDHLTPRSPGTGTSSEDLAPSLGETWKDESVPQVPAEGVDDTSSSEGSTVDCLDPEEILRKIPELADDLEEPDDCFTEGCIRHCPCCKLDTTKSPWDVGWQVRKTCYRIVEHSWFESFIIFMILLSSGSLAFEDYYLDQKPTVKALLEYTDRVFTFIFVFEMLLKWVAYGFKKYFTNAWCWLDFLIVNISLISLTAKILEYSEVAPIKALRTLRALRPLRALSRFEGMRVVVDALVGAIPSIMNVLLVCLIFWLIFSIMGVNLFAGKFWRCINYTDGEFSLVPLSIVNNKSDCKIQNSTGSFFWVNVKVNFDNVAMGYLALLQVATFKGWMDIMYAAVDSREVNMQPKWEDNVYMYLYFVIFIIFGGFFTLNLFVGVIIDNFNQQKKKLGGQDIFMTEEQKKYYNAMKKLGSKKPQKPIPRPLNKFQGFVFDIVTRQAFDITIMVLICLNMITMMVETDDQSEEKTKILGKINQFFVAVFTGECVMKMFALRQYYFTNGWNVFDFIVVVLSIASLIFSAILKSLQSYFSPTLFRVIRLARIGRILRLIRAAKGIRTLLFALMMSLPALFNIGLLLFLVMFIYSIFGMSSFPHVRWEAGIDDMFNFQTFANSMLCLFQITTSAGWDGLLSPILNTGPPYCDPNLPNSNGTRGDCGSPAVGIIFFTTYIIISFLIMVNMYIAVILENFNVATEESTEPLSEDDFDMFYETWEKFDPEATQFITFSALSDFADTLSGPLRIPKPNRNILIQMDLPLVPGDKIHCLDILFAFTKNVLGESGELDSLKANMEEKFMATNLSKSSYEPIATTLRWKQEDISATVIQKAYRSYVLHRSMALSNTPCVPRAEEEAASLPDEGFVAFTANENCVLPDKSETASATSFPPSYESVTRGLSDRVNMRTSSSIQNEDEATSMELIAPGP

The assay concerns the target Sodium channel protein type 10 subunit alpha (Homo sapiens, UniProt Q9Y5Y9). Briefly: Inhibition of human Nav1.8 expressed in HEK cells applied electrical stimulus 10 Hz for 10 seconds measuring relaxation to the resting state followed by post stimulation by E-VIPR Assay. Type of assay: cell-based.
In general, IC50 refers to the concentration that gives 50% inhibition. A higher IC50 goes with weaker potency. For the molecule `COc1c(Cl)cc(Oc2ccc(OC(F)(F)F)c(F)c2OC)c(C(=O)Nc2ccnc(C(N)=O)c2)c1F`, 1.3 nM corresponded to half-maximal inhibition (IC50). Molecule `COc1c(Oc2cc(Cl)c(C)c(F)c2C(=O)Nc2ccnc(C(N)=O)c2)ccc(OC(F)(F)F)c1F` displayed a concentration for half-maximal inhibition (IC50) of 1.4 nM. Under `COc1c(Oc2cc(C(F)(F)F)c(C)c(F)c2C(=O)Nc2ccnc(C(N)=O)c2)ccc(OC(F)(F)F)c1F` stands 0.8 nM; under `COc1cc(Oc2ccc(OC(F)(F)F)c(F)c2OC)c(C(=O)Nc2ccnc(C(N)=O)c2)c(F)c1Cl`, 1.7 nM. For the molecule `COc1cc(OC(F)(F)F)ccc1Oc1ccc(C(F)(F)F)c(C)c1C(=O)Nc1ccnc(C(N)=O)c1`, the midpoint of inhibition, the IC50, lay at 4 nM. Under `COc1cc(OC(F)(F)F)ccc1Oc1ccc(C(F)(F)F)c(Br)c1C(=O)Nc1ccnc(C(N)=O)c1` stands 2 nM. For the molecule `COc1c(Oc2ccc(Cl)c(F)c2C(=O)Nc2ccnc(C(N)=O)c2)ccc(OC(F)(F)F)c1F`, 2.3 nM corresponded to half-maximal inhibition (IC50).

As to `COc1c(Oc2ccc(C(F)(F)F)c(C)c2C(=O)Nc2ccnc(C(N)=O)c2)ccc(OC(F)(F)F)c1F`, the IC50 turned out to be 3 nM. Consider `COc1cc(OC(F)(F)F)ccc1Oc1cc(OC)c(C(F)(F)F)c(F)c1C(=O)Nc1ccnc(C(N)=O)c1`, for which the 50% inhibitory concentration (IC50) came out at 1.8 nM. Under `COc1cc(OC(F)(F)F)ccc1Oc1ccc(C(F)(F)F)c(Cl)c1C(=O)Nc1ccnc(C(N)=O)c1` stands 2 nM; under `COc1c(Oc2cc(C(F)(F)F)c(OC)c(F)c2C(=O)Nc2ccnc(C(N)=O)c2)ccc(OC(F)(F)F)c1F`, 1.6 nM.

On to `COc1cc(Oc2ccc(OC(F)(F)F)c(F)c2OC)c(C(=O)Nc2ccnc(C(N)=O)c2)c(F)c1C(F)(F)F`, for which the IC50 is 0.4 nM.
